Results from ChEMBL document CHEMBL2146378, “Curcumin is an inhibitor of calcium/calmodulin dependent protein kinase II” (Bioorg Med Chem, 2012).

How the values were obtained:
[1] = Inhibition of Albino Wistar rat CaMK2 autophosphorylation at Thr286 in postsynaptic density fraction using [gamma32P]ATP incubated for 30 secs prior to ATP addition measured after 30 secs
[2] = target: T1, Calcium/calmodulin-dependent protein kinase type II subunit alpha (Homo sapiens, UniProt Q9UQM7); assay: Inhibition of alphaCaMK2 using GST-NR2A as substrate incubated for 1 min prior to substrate addition measured after 1 min
[3] = Inhibition of Albino Wistar rat CaMK2 in postsynaptic density fraction using GST-NR2A as substrate incubated for 1 min prior to substrate addition measured after 1 min
[4] = target: T1, Calcium/calmodulin-dependent protein kinase type II subunit alpha; assay: Inhibition of autophosphorylated alphaCaMK2 using GST-NR2A as substrate incubated for 1 min prior to substrate addition measured after 1 min
[5] = Inhibition of Albino Wistar rat CaMK2 in brain cytosolic fraction using GST-NR2A as substrate incubated for 1 min prior to substrate addition measured after 1 min in presence of EGTA; type: tissue-based
[6] = Inhibition of Albino Wistar rat CaMK2 in brain cytosolic fraction using GST-NR2A as substrate incubated for 1 min prior to substrate addition measured after 1 min; type: tissue-based
[7] = Inhibition of Albino Wistar rat CaMK2 autophosphorylation at Thr286 in brain cytosolic fraction using [gamma32P]ATP incubated for 30 secs prior to ATP addition measured after 30 secs; type: tissue-based
[8] = target: T1, Calcium/calmodulin-dependent protein kinase type II subunit alpha; assay: Inhibition of alphaCaMK2 autophosphorylation at Thr286 using [gamma32P]ATP incubated for 30 secs prior to ATP addition measured after 30 secs
[9] = target: T1, Calcium/calmodulin-dependent protein kinase type II subunit alpha; assay: Inhibition of autophosphorylated alphaCaMK2 using GST-NR2A as substrate incubated for 1 min prior to substrate addition measured after 1 min in presence of EGTA
[10] = Inhibition of Albino Wistar rat CaMK2 in postsynaptic density fraction using GST-NR2A as substrate incubated for 1 min prior to substrate addition measured after 1 min in presence of EGTA
[11] = target: Calcium/calmodulin-dependent protein kinase type II subunit alpha (Homo sapiens, UniProt Q9UQM7, T286D); assay: Inhibition of alphaCaMK2 T286D mutant using GST-NR2A as substrate incubated for 1 min prior to substrate addition measured after 1 min in presence of EGTA
Chain of Calcium/calmodulin-dependent protein kinase type II subunit alpha (Homo sapiens, UniProt Q9UQM7, T286D) (Q9UQM7 whole entry T286D): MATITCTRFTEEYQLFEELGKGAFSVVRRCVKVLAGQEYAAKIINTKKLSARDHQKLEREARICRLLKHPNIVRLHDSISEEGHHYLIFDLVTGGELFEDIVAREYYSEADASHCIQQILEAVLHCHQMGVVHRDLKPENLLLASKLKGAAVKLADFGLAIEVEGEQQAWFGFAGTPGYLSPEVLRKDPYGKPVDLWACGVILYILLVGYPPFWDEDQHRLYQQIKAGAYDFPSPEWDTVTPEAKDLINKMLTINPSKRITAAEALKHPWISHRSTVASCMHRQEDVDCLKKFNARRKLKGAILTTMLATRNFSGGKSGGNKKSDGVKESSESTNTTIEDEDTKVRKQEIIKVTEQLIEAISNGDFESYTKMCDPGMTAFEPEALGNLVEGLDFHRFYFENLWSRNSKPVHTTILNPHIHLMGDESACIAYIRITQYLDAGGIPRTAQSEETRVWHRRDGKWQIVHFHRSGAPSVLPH

T1 sequence (Q9UQM7 whole entry): as the sequence (Q9UQM7 whole entry T286D) above, with D286T counted along it

| Compound | IC50 [1] | IC50 [2] | IC50 [3] | IC50 [4] | IC50 [5] | IC50 [6] | IC50 [7] | IC50 [8] | IC50 [9] | IC50 [10] | IC50 [11] |
| --- | --- | --- | --- | --- | --- | --- | --- | --- | --- | --- | --- |
| COc1cc(/C=C/c2cc(/C=C/c3ccc(O)c(OC)c3)on2)ccc1O | 22.8 µM | 11.4 µM | 22.9 µM | 24.4 µM | 13.7 µM | 28.9 µM | 17.1 µM | 18 µM | 0.68 µM | 18.9 µM |  |
| COc1cc(/C=C/c2cc(/C=C/c3ccc(O)c(OC)c3)n(-c3ccccc3)n2)ccc1O | 68 µM | 37 µM | 103 µM | 79 µM | 96 µM | 94 µM | 80 µM | 111 µM | 54 µM | 62 µM |  |
| O=C(/C=C/c1ccc(O)cc1)CC(=O)/C=C/c1ccc(O)cc1 [BISDEMETHOXYCURCUMIN] |  | 37 µM |  |  |  |  |  |  |  |  |  |
| COc1cc(/C=C/c2cc(/C=C/c3ccc(O)c(OC)c3)[nH]n2)ccc1O [CURCUMIN PYRAZOLE] | 7.58 µM | 1.49 µM | 3.6 µM | 6.3 µM | 0.44 µM | 4.4 µM | 16.3 µM | 6.5 µM | 0.29 µM | 0.34 µM |  |

Results, then the compound that gave them:

| IC50 [1] | IC50 [2] | IC50 [3] | IC50 [4] | IC50 [5] | IC50 [6] | IC50 [7] | IC50 [8] | IC50 [9] | IC50 [10] | IC50 [11] | Compound |
| --- | --- | --- | --- | --- | --- | --- | --- | --- | --- | --- | --- |
| 69 µM | 21 µM | 80 µM | 45 µM | 64 µM | 112 µM | 143 µM | 33 µM | 34 µM | 33 µM | 37 µM | COc1cc(/C=C/C(=O)CC(=O)/C=C/c2ccc(O)c(OC)c2)ccc1O (stereo in doubt) [CURCUMIN] |
|  | 13 µM |  |  |  |  |  |  |  |  |  | COc1cc(/C=C/C(=O)CC(=O)/C=C/c2ccc(O)c(OC)c2)ccc1O (stereo in doubt; 1) [CURCUMIN] |
|  | 24 µM |  |  |  |  |  |  |  |  |  | COc1cc(/C=C/C(O)=C/C(=O)/C=C/c2ccc(O)cc2)ccc1O [DEMETHOXYCURCUMIN] |
